Results reported in patent US8709392B2, “Cosmetic/dermatological compositions comprising naphthoic acid compounds and polyurethane polymers” (Galderma Research & Development, priority 2005, dated 2014).

Experiments:
[1] = tested on: skin of the back of RHINO FVB/N RJ-hr^rh mice (Rhino); assay: Study of the comedolytic activity on Rhino mice; type: in vivo, mouse; conditions: for Change in weight of the Rhino mice (%) D19-D1, Mean: 50 μl topical daily for 18 days; for increase in transepidermal water loss (TWL), AUC: Rhino mice, after 18 days of topical treatment
Experimental: The present study is aimed at evaluating the comedolytic activity of the reference gel containing 0.1% adapalene and of two 0.1% adapalene formulations in gel form with a polyurethane polymer at different concentrations, and also their placebos, on the skin of the back of RHINO FVB/N RJ-hr^rh mice (Rhino) after repeated topical applications for 18 days.
The daily topical application (50 μl) of the test products is performed on the skin of the back of Rhino mice divided into seven groups (approximately 7-week-old mice) at a rate of one application per day for 18 days. The test products are:
The tolerance evaluation is made by clinical observation of the dorsal epidermis with the following observation parameters: oedema, erythema and squamae 3 times a week for 19 days.
The comedolytic activity is evaluated by measuring the transepidermal water loss (TWL) on days D4, D11 and D19, by measuring the thickness of the epidermis, by counting the number of comedones/cm and by weighing the animals on days D1, D4, D11 and D19.
The TWL quantifies the impairment in the skin barrier by measuring the gradient of water vapor that is established in a layer 10 mm thick above the surface of the skin.

[2] = tested on: skin of the ear of the BALB/c mouse; assay: Tolerance study in BALB/c mice (ear thickness after repeated topical applications); type: in vivo
Experimental: The present study is for comparing the irritant power of a reference gel containing 0.1% adapalene with that of three 0.1% adapalene formulations in gel form containing a polyurethane polymer at various concentrations, and also placebos thereof, on the skin of the ear of the BALB/c mouse after repeated topical applications for 6 days.
The daily topical application (20 μl) of the test products is performed on the inner face of the ear of BALB/c mice divided into ten groups (female mice about 8 weeks old) at a rate of one application per day for 6 days. The test products are:
The evaluation is performed by measuring the thickness of the ear by means of the Oditest and by clinical observation of the animals from the 2nd to the 19th day.

Structure (SMILES): CC1(C)CCC(C)(C)c2cc(-c3cc4ccc(C(=O)O)cc4s3)ccc21 [2-(5,5,8,8-tetramethyl-5,6,7,8-tetrahydronaphthalen-2-yl)benzo[b]thiophene-6-carboxylic acid]
- Change in weight of the Rhino mice (%) D19-D1, Mean [1]: 10.4%
- increase in transepidermal water loss (TWL), AUC [1]: 332%

Structure (SMILES): COc1ccc(-c2ccc3cc(C(=O)O)ccc3c2)cc1C12CC3CC(CC(C3)C1)C2 [acetone+0.1% (m/m) adapalene, 6-[3-(1-adamantyl)-4-methoxyphenyl]-2-naphthoic acid]
- irritant power ([2]; BALB/c mouse ear thickness kinetics D2-D19): also irritant
- Increase in AUC versus placebo (%) ([2]; ear thickness AUC D2-D19, BALB/c mouse, relative to own placebo): 30%
- Change in weight of the Rhino mice (%) D19-D1, Mean [1]: 9.2%
- increase in transepidermal water loss (TWL), AUC [1]: 299%
